Results taken from patent publication US20120039888A1, “Methods Of Inhibiting Inflammation-Associated Tissue Damage By Inhibiting Neutrophil Activity” (priority 2008, published 2012).

Legend:
[1] = test system: Balb/c mice; test: Antibody-induced acute lung injury (TRALI model), protein content in BAL fluids; format: in vivo, mouse (Balb/c); details: antibodies 1 mg/kg i.v. or n-acetyl cysteine 150 mg/kg i.v. 5 min before anti-H2d 3.5 mg/kg; BAL 2 h later
Method: Antibody-induced acute lung injury. Balb/c male mice (8-12 week-old) were injected i.v. with 3.5 mg/kg of anti-H2d (clone 34-1-2s) or control H2b (clone 28-8-6s) antibodies. After 2 h, BAL was performed on anesthetized mice by 3 washes with 1 ml PBS each using a 18G needle, and the protein content assessed by the bicinchoninic acid method (BCA; Pierce, Rockford, Ill.). In some experiments, mice were pre-treated as follows: rabbit anti-platelet serum (25 μl; i.p. injection; Accurate Chemicals; Westbury, N.Y.) diluted in 200 μl of PBS, 2 h prior anti-H2d treatment; 1 mg/kg i.v. injection of control or anti-P-selectin, E-selectin or anti-αMβ2 antibodies 5 min before anti-H2d; 150 mg/kg i.v. injection of n-acetyl cysteine 5 min before anti-H2d . Platelet and leukocyte counts from blood samples obtained at the end of the experiment were determined using a hematological Coulter® AC-T diff™ l Analyzer (Beckman Coulter, Miami, Fla.). None of these treatments affected circulating leukocyte counts (not shown). In the TRALI experiments involving intravital imaging of the cremasteric microcirculation, TNF-α was injected intrascrotally to allow the recruitment and imaging of inflammatory leukocytes.

[2] = test system: ROS-producing adherent leukocytes; test: In vivo detection of ROS-producing adherent leukocytes (dihydroxyrhodamine-123, MFIM); parameters: species or system mouse (Balb/c); details: TNF-α-treated mice; pre-treatment with anti-E-selectin 1 mg/kg or n-acetyl cysteine 150 mg/kg
Method: In vivo detection of leukocytes producing reactive oxygen species (ROS). Balb/c mice prepared for MFIM were injected i.v. with 29 nmoles of dihydroxyrhodamine-123 (DHR; Molecular Probes, Eugene, Oreg.). DHR uptaken by leukocytes actively producing ROS converts into fluorescent rhodamine-123 (507/529 nm) which can be detected by a bright punctuated pattern in the FITC channel (FIG. 11). In some experiments, mice were pre-treated with 25 μL rabbit anti-platelet serum to deplete platelets, 1 mg/kg of anti-E-selectin antibody, or 150 mg/kg of n-acetyl cysteine. Images were captured in the brightfield and FITC channels before and after injection of 3.5 mg/kg anti-H2d antibody, and the frequency of ROS-producing cells calculated out of all adherent leukocytes in each venular segment.

[3] = test system: Balb/c mice; test: Vascular permeability, FITC-dextran extravasation in cremasteric venules after anti-H2d; format: in vivo, mouse (Balb/c); details: TNF-α-treated mice, pre-treatment with antibodies 1 mg/kg or n-acetyl cysteine 150 mg/kg, imaged 30 min later
Method: Vascular permeability. To analyze anti-MHC-I-induced vascular damage, Balb/c mice were intravenously infused with 3.5 mg/kg of anti-MHC-I antibodies (to H2d or control H2b) and 1 mg of FITC-Dextran (70 Kd; Sigma-Aldrich) 210 min after TNF-α-treatment.
In some experiments, mice were pre-treated with 25 μL rabbit anti-platelet serum to deplete platelets, 1 mg/kg of control, anti-E-selectin or anti-αMβ2 antibodies, or 150 mg/kg of n-acetyl cysteine. Random fields containing small venules were imaged 30 min later using the FITC channel under a LumPlanFl 10× objective, NA 0.30 w. Images were masked over a threshold to quantify all FITC-Dextran-associated fluorescence intensity as well as the signal corresponding only to intravascular spaces. The percentage of extravasated FITC-Dextran was finally obtained using the formula: [(Total intensity−Intravascular intensity)/Total intensity]×100.

[4] = test system: nRBC interactions with adherent leukocytes; test: nRBC-leukocyte interactions, brightfield intravital microscopy of TNF-α-inflamed cremasteric venules; format: in vivo, mouse (C57BL/6); details: inhibitor given 120 min after TNF-α: PP2 150 μg/kg, SB203580 100 μg, piceatannol 1 mg; compared to vehicle control (DMSO); FIG. 2f
Method: Brightfield intravital microscopy. Brightfield intravital microscopy was performed as previously reported^21,22. For SCD mice, several postcapillary and collecting venules were recorded from 15 min after the surgical preparation (time=0 is surgical section of the cremaster) for 75 minutes (pre-TNF-α), with each venule recorded continuously for at least 2 min. SCD mice were then injected i.p. with 0.5 μg recombinant murine TNF-α (R & D Systems) and then the same venules were videotaped over a period of 90 min (91-180 min), after which venules were recorded again for another 90 min (181-270 min). The role of endothelial selectins was evaluated in identical experiments performed in Selp^−/− or Sele^−/− mice transplanted with BM cells from SCD donor mice, or using antibodies against P- or E-selectin (1 mg/kg) prior to surgery. […] In experiments with non-SCD C57BL/6 mice, TNF-α was administered intrascrotally and images recorded 160-210 min after cytokine injection. […]
Hemodynamic measurements and image analyses for brightfield intravital microscopy. The venular diameter was measured using a video caliper. Centerline RBC velocity was measured for each venule in real time using an optical Doppler velocimeter (Texas A&M, College Station, Tex.). […] Blood flow rate was calculated from the formula: Vmean×π×d^2/4. […]

## CC(=O)N[C@@H](CS)C(=O)O [n-acetyl-cysteine]
[1]
  lung injury induced by anti-H2d (protein content in BAL fluids): completely prevented lung injury
[2]
  ROS-producing adherent leukocytes after anti-H2d: prevents ROS generation
[3]
  vascular permeability (FITC-dextran extravasation) after anti-H2d: completely prevented
[3]; listed as N-acetyl-cysteine
  vascular permeability (FITC-dextran extravasation) after anti-H2d: prevents

## CC(C)(C)n1nc(-c2ccc(Cl)cc2)c2c(N)ncnc21 [PP2, 4-amino-5-(4-chlorophenyl)-7-(t-butyl)pyrazolo[3,4-d]pyramidine]
[4]
  nRBC (normal red blood cell) interactions with leukocytes: Inhibition of nRBC (normal red blood cell) interactions
